In US20080071190A1, “Timing of Ovulation Based on Vaginal Ph” (priority 2004, published 2008):

How the values were obtained:
Human Endocervical Cells = assay: Determinations of extracellular pH (pHo) in luminal and contra-luminal solutions of Human Endocervical Cells cultured on filters; format: cell-based; conditions: steroid-free medium and treatment with 10 nM estradiol, no effect
Experimental: Primary cultures of Human Endocervical Cells were obtained through Clonetics (Walkersville, Md.). Cells chosen for experiments were those obtained from tissues of two women reported as HPV negative, and the cultured Endocervical Cells were tested for mycoplasma. Primary Endocervical cultures were grown and subcultured into second passage using Clonetics proprietary Endocervical Medium (supplied with the cells), and thereafter maintained in hECE culture medium. Cells were characterized as epithelial cells based on typical morphology of a monolayered epithelium; the expression of involucrin; lack of expression of vimentin; and expression of tight junctions (not shown). […] The cells were defined as phenotypically endocervical (in contrast to ectocervical/vaginal) based on expression of apical villi, the abundant expression of cytokeratins 18/19, and minimal expression of cytokeratins 4/5 and 13. Both hECE cells and the Human Endocervical Cells (not shown) expressed functional estrogen receptors. […]
Plates containing the filters were placed in a tissue culture incubator (37° C.), and pHo changes in the luminal and contra-luminal solutions were determined using AMANI-1000 microcombination pH electrodes 306 (Harvard Apparatus, Holliston, Mass., obtained through Genomics Solutions, Ann Harbor, Mich.). […]

[1] = system: hECE cells (Human Ectocervical-Vaginal Epithelial Cells); assay: Determinations of extracellular pH (pHo) in luminal and contra-luminal solutions of hECE cells cultured on filters; format: cell-based
Experimental: Referring to FIG. 4A, hECE cells or Human Endocervical Cells were plated on Anocell filters (Anocel™-10, Oxon, UK, obtained through Sigma Chemicals, St. Louis, Mo.), which are ceramic-base filters, pore size of 0.02 μm width, 50 μm depth, and surface area of 0.6 cm^2. Filters 300 and 302 were coated with 4 μg/cm^2 collagen type IV and incubated at 37° C. overnight. The remaining collagen solution was aspirated and the filter was dried at 37° C. Before plating, filters 300 were rinsed 3 times with Hanks' Balanced Salt Solution. Cells were plated either on the upper surface 302 of one filter 300 (for determinations of luminal pHo) or on the bottom surface 304 of the other filter 300 (for determinations of the contra-luminal pHo) at 3·10^5 cells/cm^2. By plating at this relatively high density the cultures became confluent within 12 hours after plating.
Plates containing the filters were placed in a tissue culture incubator (37° C.), and pHo changes in the luminal and contra-luminal solutions were determined using AMANI-1000 microcombination pH electrodes 306 (Harvard Apparatus, Holliston, Mass., obtained through Genomics Solutions, Ann Harbor, Mich.). The AMANI-1000 pH sensor (stored in pH 7.0) is based on metal-metal oxide pH measurements and the pH sensitive layer is immobilized on plastic. The reference electrode employs an Ag/AgCl in 3.4 M KCl reference electrode, and the reference electrode junction is leak-free ensuring no leaks of KCl out of the reference electrode. The design of the pH electrodes 306 enabled their use for the purpose of the present experiments: tip diameter of 1 mm, depth of immersion 1 mm, and response time of less than 5 sec.
Electrodes 306 attached to a stand were held stable with the tip immersed in the solution within the upper compartment of the filter to a depth of about 2 mm avoiding direct contact between the electrode tip and the cultured cells. The electrodes were connected directly to a pH meter 310 (e.g., Accumet pH meter 910) (Fisher Scientific, Suwanee Ga.). After stabilization, the luminal and contraluminal solutions were gently aspirated using glass pipette, and replaced with fresh warmed (37° C.) Basic Salt Solution containing (in mM) NaCl (140), KCl (5), MgCl2 (1), CaCl2 (1), glucose (10), and 0.1% bovine serum albumin, pH 7.4. The volumes in the luminal and contraluminal compartments were 150 μl and 500 μl, respectively. Determinations of changes in pHo were made at time 0, and at 5 min intervals thereafter for up to 30 min.
To remove intracellular estrogens cells were grown in steroid-free medium as described. This procedure involved shifting cells on filters for three days prior to pHo assays to a medium composed of phenol-red-deficient (DMEM)/Ham's F12 or (Sigma Chemicals, St. Louis, Mo.) containing 8% heat inactivated fetal bovine serum that was previously treated with charcoal to remove steroids. Preparation of charcoal-treated serum was described; briefly, dextran-coated charcoal (Sigma Chemicals, St. Louis, Mo.) was dissolved at 8% in 0.15 M NaCl, autoclaved, mixed by stirring, spun and the pellet was resuspended as 1 gm/1.25 ml in H2O. Fetal bovine serum (Hyclone, Logan, Utah) was mixed with the activated charcoal-dextran at 20:1 (Vol:Vol) and incubated for 45 min at 55° C. At the completion of incubation the mixture was spun twice at 800 g for 20 min and the supernatant (serum) was decanted and collected. For experiments, cells were shifted to steroid-free medium for 3 days; alternatively, cells were shifted to the steroid-free medium for 24 hrs and treated with 17β-estradiol for two additional days.

hECE cells = assay: Cell-vitality staining (MTT assay); format: cell-based, human; conditions: Steroid-Free Medium + substance, means ±SD, 3 to 4 repeats
Experimental: Cell-vitality staining was done using the 3-[4,5-dimethylthiazol-2-yl]-2,5-diphenyl tetrazolium bromide (MTT) assay. MTT serves as a substrate for mitochondrial dehydrogenases, and only viable functional mitochondria are capable of cleaving MTT to generate the colored product formazan. MTT solution was prepared by dissolving MTT at a concentration of 5 mg/ml in phosphate-buffered saline (PBS) composed of (mM) NaCl (137), KCl (2.68), Na2HPO4 (10), KH2PO4 (1.76), pH 7.4, and filtering the solution through Millipore filter. Following treatments/assays, cells on filters were washed with fresh and warm (37° C.) PBS and incubated for 60 min at 37° C. in MTT solution. At the completion of incubation, cells were washed with PBS, and solubilized in isopropanol containing 0.1 M HCl plus 1% Triton X-100. Lysates were mixed by pipetting to dissolve the reduced MTT crystals (during which time the colorless solution turned purple) and were spinned at 10,000 g for 5 min. The solubilized formazan was measured by determining absorption at 570 nm. Background absorbance at 690 nm was subtracted for each sample, and values were normalized to OD570 (optic density) of control unperturbed cells.

EC50 ([1]; Homo sapiens, Epithelial cell, hECE cells grown in steroid-free medium, dose response FIG. 8B, read-out: EC50 of decrease in luminal pHo): ~0.5 nM | hECE cell vitality (MTT staining normalized to OD570 of control unperturbed cells), Baseline (hECE cells; Baseline): 96 ± 3% | hECE cell vitality (MTT staining normalized to OD570 of control unperturbed cells), 30 min pHo (hECE cells; after 30 min pHo measurement): 94 ± 4%
SMILES: C[C@]12CC[C@@H]3c4ccc(O)cc4CC[C@H]3[C@@H]1CC[C@@H]2O [17β-estradiol]
contra-luminal pHo or luminal pHo (Human Endocervical Cells): around 7.25 | luminal pHo ([1]; hECE cells in steroid-free medium treated with 10 nM 17β-estradiol for two days, 30 min, steroid-free medium alone 7.11±0.02): 7.03±0.02 | luminal pHo ([1]; hECE cells in steroid-free medium, 0.1 nM 17β-estradiol, decreased from 7.26±0.03): 7.13±0.03 | effect on luminal pHo (dose response) ([1]; hECE cells in steroid-free medium, 1 nM): reached near saturation | effect on luminal pHo (dose response) ([1]; hECE cells in steroid-free medium, 100 nM): no additional effect | contra-luminal pHo ([1]; hECE cells, steroid-free medium and treatment with 10 nM estradiol, no effect): around 7.25
